# The source made the active and inactive calls.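 Rule for the calls: active = EC50 at or below 10 µM; inactive = EC50 above 10 µM.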
# Biological target: cAMP-dependent protein kinase type I-alpha regulatory subunit (Bos taurus) + cAMP-dependent protein kinase catalytic subunit beta (Mus musculus) (UniProt P00514+P68181)
# Assay: PKA-R1A holoenzyme activators, late-stage follow-up, biochemical, fluorescence polarization, powder samples (AID 588839)
# Details: PKA-R1A dissociation, Cy5-IP20 fluorescence polarization
row,Compound,EC50
1,COC(=O)c1sc2ncccc2c1OCc1ccc(Cl)cc1Cl,> 100 µM (inactive)
2,O=C(O)c1sccc1NC(=O)c1c(Cl)cccc1Cl,> 100 µM (inactive)
3,O=C(O)c1sccc1SCc1ccc(Cl)c(Cl)c1,> 100 µM (inactive)
4,Cc1ccc(COc2ccsc2C(=O)O)cc1,> 100 µM (inactive)
5,O=C(O)c1sc2ncccc2c1OCc1ccccc1,> 100 µM (inactive)
6,COC(=O)c1sc2ncccc2c1OCc1ccccc1Cl,> 100 µM (inactive)

# The remaining lines, values ahead:
row,EC50,Compound
1,> 100 µM (inactive),Cc1csc(C(=O)O)c1NC(=O)c1ccc(F)cc1
2,> 100 µM (inactive),O=C(O)c1sccc1SCc1ccc(Cl)cc1Cl
3,> 100 µM (inactive),CC(C)(C)c1ccc(COc2ccsc2C(=O)O)cc1

# Source: PubChem BioAssay AID588839 (The Scripps Research Institute Molecular Screening Center, 2011)
